# Earlier results in patent US20250243467A1, “BONE MARROW ORGANOIDS PRODUCED FROM INDUCED PLURIPOTENT STEM CELLS AND USES OF THESE ORGANOIDS” (PRISM INGENUITY GMBH, priority 2022, published 2025).
# What was measured:
# ALK6 = ALK6 (Homo sapiens, UniProt O00238)
# ALK7 = target: T1, ALK7 (Homo sapiens, UniProt Q8NER5); details: competing for the ATP binding site
# T1 sequence (Q8NER5 21-493): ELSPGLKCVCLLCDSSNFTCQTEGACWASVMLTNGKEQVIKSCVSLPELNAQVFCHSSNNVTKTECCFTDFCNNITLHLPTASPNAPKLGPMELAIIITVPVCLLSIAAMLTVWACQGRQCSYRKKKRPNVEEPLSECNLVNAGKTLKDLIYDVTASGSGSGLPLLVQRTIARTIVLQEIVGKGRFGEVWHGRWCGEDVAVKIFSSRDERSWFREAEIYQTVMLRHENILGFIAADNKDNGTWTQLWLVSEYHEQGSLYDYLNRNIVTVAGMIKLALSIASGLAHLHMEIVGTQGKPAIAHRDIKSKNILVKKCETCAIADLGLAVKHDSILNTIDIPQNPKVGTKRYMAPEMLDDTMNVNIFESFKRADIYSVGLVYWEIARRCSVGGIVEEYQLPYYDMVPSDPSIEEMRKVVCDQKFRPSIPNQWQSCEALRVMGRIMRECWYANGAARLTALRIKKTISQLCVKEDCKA
# ALK2 = ALK2 (Homo sapiens, UniProt Q04771)
# ALK3 = ALK3 (Homo sapiens, UniProt P36894)
# Chain of ALK3 (P36894 24-532, species assumed): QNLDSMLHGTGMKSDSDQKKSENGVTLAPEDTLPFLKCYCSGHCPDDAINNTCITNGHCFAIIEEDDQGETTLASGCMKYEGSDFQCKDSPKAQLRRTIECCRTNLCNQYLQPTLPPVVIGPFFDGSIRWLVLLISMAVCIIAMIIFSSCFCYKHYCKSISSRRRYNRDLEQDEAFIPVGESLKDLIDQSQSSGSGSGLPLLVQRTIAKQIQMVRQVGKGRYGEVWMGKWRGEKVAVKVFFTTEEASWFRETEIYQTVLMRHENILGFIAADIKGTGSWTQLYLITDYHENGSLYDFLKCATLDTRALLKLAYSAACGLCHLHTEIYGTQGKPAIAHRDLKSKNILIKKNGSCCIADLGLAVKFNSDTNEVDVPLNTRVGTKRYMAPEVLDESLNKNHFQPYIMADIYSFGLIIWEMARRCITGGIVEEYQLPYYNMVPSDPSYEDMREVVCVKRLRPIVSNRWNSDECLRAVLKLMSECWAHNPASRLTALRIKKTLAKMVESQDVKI
# Chain of ALK2 (Q04771 21-509, species assumed): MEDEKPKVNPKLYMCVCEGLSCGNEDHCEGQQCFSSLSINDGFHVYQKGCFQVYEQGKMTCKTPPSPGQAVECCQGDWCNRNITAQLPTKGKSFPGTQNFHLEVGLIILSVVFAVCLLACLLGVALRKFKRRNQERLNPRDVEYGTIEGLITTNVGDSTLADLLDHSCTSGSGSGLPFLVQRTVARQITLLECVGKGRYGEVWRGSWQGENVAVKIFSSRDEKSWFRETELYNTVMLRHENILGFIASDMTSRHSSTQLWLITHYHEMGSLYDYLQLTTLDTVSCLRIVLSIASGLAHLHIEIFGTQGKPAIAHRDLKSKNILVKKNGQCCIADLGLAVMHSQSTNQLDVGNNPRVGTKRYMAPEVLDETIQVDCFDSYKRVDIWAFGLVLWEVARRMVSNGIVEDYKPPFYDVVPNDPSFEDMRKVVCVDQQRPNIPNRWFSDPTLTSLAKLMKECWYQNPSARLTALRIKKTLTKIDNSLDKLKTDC
# Chain of ALK6 (O00238 14-502): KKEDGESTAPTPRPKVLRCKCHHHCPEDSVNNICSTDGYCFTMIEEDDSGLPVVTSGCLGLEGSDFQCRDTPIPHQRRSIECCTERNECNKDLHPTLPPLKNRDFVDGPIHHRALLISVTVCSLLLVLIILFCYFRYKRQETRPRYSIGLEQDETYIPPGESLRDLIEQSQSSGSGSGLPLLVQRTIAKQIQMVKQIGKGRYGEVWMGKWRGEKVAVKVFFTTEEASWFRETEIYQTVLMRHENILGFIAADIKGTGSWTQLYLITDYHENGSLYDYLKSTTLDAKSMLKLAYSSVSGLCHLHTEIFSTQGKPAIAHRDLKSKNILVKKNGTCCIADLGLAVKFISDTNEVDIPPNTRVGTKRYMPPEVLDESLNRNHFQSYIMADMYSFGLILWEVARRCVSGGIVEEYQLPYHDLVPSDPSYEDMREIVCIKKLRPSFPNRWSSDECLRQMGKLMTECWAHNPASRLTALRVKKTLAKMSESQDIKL
smiles,measurement,setting,value
NC(=O)c1ccc(-c2nc(-c3ccc4c(c3)OCO4)c(-c3ccccn3)[nH]2)cc1 [SB431542],inhibition of BMP type I receptor ALK6,ALK6,does not inhibit
same,inhibition of ALK7,ALK7,inhibits
same,inhibition of BMP type I receptor ALK2,ALK2,does not inhibit
same,inhibition of BMP type I receptor ALK3,ALK3,does not inhibit
